Measurements taken from patent US20120010173A1 (SEPS PHARMA N.V., priority 2009, published 2012).
In brackets after ≈: the same amount, converted by molar mass. Like-named read-outs stand apart in the source and are kept apart here.

Assays:
Type in all cases: physicochemical
[1] = Solubility of fosfluconazole derivatives in pharmaceutical solvents (Table 2); settings: thermodynamic from solid
Experimental: The solubility determination method used was as follows: a suspension of 6 mg of the tested fosfluconazole derivative in 500 μl of the applicable pharmaceutical solvent was rotatively shaken for 24 hours at 800 rpm at 25° C. The saturated fosfluconazole derivative solution was filtered (0.45 μm) and 150 μl of the filtrate was diluted in dimethylsulfoxide (50 μl DMSO). This solution was assayed, each assay being carried out in three-fold, by measurement with Liquid Chromatography-Mass Spectrometry (LCMS, 1 μl and 10 μl injection). Standards were prepared by dissolving the corresponding fosfluconazole derivative in DMSO (1 mg/ml). To determine the solubility, four aliquots (0.5, 1, 2, 4 μl) of the standard solution were injected using the same LCMS conditions as for the above exemplary samples.

[2] = Chemical stability in pharmaceutical solvents (weight % remaining in solution, LCMS)
Experimental: (§1) Table 4 provides the chemical stability data in some pharmaceutical solvents, expressed as the weight percentage (% w/w) of the final fosfluconazole derivative produced and characterized in example 1 that remained in solution after a certain period of time. The test was carried out twice, and the remaining weight % was determined by Liquid Chromatography-Mass Spectrometry (LCMS).
as §1, with “5” for “4”, “solvents at 25° C.,” for “solvents,”, “2” for “1”
as §1, with “6” for “4”, “solvents at 25° C.,” for “solvents,”, “3” for “1”
as §1, with “7” for “4”, “4” for “1”
as §1, with “8” for “4”, “5” for “1”
as §1, with “9” for “4”, “6” for “1”
as §1, with “10” for “4”, “14” for “1”

[3] = Solubility in pharmaceutical solvents (Table 3); settings: read-out: solubility
Excerpt: The values within brackets in Table 3 correspond to the calculated fluconazole concentrations taking into account the molecular weights of the relevant fosfluconazole prodrug and fluconazole itself.

[4] = aqueous with cosolvent or surfactant or cyclodextrin, H2O/Cremophor RH 40 (80/20), 25° C.
[5] = aqueous with cosolvent or surfactant or cyclodextrin, H2O/Kleptose HPB (60/40), 25° C.
[6] = aqueous with cosolvent or surfactant or cyclodextrin, H2O/Vitamin E TPGS (90/10), 25° C.
[7] = aqueous with cosolvent or surfactant or cyclodextrin, H2O/polysorbate 80 (80/20), 25° C.
[8] = oil or lipid, Miglyol 812, 25° C.
[9] = organic solvent or mixture, PEG 400, 25° C.
[10] = water (pH 2), aqueous buffer, H2O (pH = 2), 25° C.
[11] = water (pH 7), aqueous buffer, H2O (pH = 7), 25° C.
[12] = water (pH 10), aqueous buffer, H2O (pH = 10), 25° C.
[13] = H2O/Kleptose HPB (60/40), 4 hours
[14] = H2O/Kleptose HPB (60/40), 1 day
[15] = H2O/Kleptose HPB (60/40), 2 days
[16] = H2O/Kleptose HPB (60/40), 7 days
[17] = H2O/Kleptose HPB (60/40), 14 days

| solubility at 24 h [1, 4] [µg/mL] | solubility at 24 h [1, 5] [µg/mL] | solubility at 24 h [1, 6] [µg/mL] | solubility at 24 h [1, 7] [µg/mL] | solubility at 24 h [1, 8] [µg/mL] | solubility at 24 h [1, 9] [µg/mL] | solubility at 24 h [1, 10] [µg/mL] | solubility at 24 h [1, 11] [µg/mL] | solubility at 24 h [1, 12] [µg/mL] | weight percentage that remained in solution ([2]; H2O (pH = 7), 4 hours) [% w/w] | weight percentage that remained in solution ([2]; H2O (pH = 7), 1 day) [% w/w] | weight percentage that remained in solution ([2]; H2O (pH = 7), 2 days) [% w/w] | weight percentage that remained in solution ([2]; H2O (pH = 7), 7 days) [% w/w] | weight percentage that remained in solution ([2]; H2O (pH = 7), 14 days) [% w/w] | weight percentage that remained in solution ([2]; H2O (pH = 10), 4 hours) [% w/w] | weight percentage that remained in solution ([2]; H2O (pH = 10), 1 day) [% w/w] | weight percentage that remained in solution ([2]; H2O (pH = 10), 2 days) [% w/w] | weight percentage that remained in solution ([2]; H2O (pH = 10), 7 days) [% w/w] | weight percentage that remained in solution ([2]; H2O (pH = 10), 14 days) [% w/w] | weight percentage that remained in solution [2, 13] [% w/w] | Structure (SMILES) | also measured |
| --- | --- | --- | --- | --- | --- | --- | --- | --- | --- | --- | --- | --- | --- | --- | --- | --- | --- | --- | --- | --- | --- |
| > 10000 | > 10000 | > 10000 | > 10000 | 2600 | > 10000 | > 10000 | > 10000 | > 10000 | 94.8 | 94.7 | 95.0 | 94.8 | 95.1 | 94.8 | 94.8 | 95.0 | 95.0 | 95.2 | 95.0 | CCCCCCCCCOCCOP(=O)([O-])OC(Cn1cncn1)(Cn1cncn1)c1ccc(F)cc1F.[Na+] [Example 3, sodium 2-(2,4-difluorophenyl)-1,3-di(1H-1,2,4-triazol-1-yl)propan-2-yl 2-(nonyloxy)ethyl phosphate] | weight percentage that remained in solution ([2]; H2O (pH = 2), 4 hours): 94.8 % w/w; weight percentage that remained in solution ([2]; H2O (pH = 2), 1 day): 94.6 % w/w; weight percentage that remained in solution ([2]; H2O (pH = 2), 2 days): 95.0 % w/w; weight percentage that remained in solution ([2]; H2O (pH = 2), 7 days): 95.0 % w/w; weight percentage that remained in solution ([2]; H2O (pH = 2), 14 days): 95.0 % w/w; weight percentage that remained in solution [2, 14]: 94.9 % w/w; weight percentage that remained in solution [2, 15]: 94.7 % w/w; weight percentage that remained in solution [2, 16]: 95.0 % w/w; weight percentage that remained in solution [2, 17]: 95.2 % w/w; weight percentage that remained in solution ([2]; PEG 400, 4 hours): 95.0 % w/w; weight percentage that remained in solution ([2]; PEG 400, 1 day): 94.9 % w/w; weight percentage that remained in solution ([2]; PEG 400, 2 days): 95.0 % w/w; weight percentage that remained in solution ([2]; PEG 400, 7 days): 95.0 % w/w; weight percentage that remained in solution ([2]; PEG 400, 14 days): 95.1 % w/w |
| > 10000 | > 10000 | > 10000 | > 10000 | > 10000 | 9000 | < 1000 | 9900 | > 10000 | 95.2 | 95.3 | 95.5 | 95.6 | 95.4 | 45.5 | 44.8 | 41.3 | 39.4 | 37.1 | 95.1 | CCCCCCCCCC(=O)OCC(COP(=O)([O-])OC(Cn1cncn1)(Cn1cncn1)c1ccc(F)cc1F)OC(=O)CCCCCCCCC.[Na+] (stereo not shown) [Example 4, sodium 2,3-bis(decanoyloxy)propyl 2-(2,4-difluorophenyl)-1,3-di(1H-1,2,4-triazol-1-yl)propan-2-yl phosphate] | weight percentage that remained in solution [2, 14]: 95.3 % w/w; weight percentage that remained in solution [2, 15]: 95.3 % w/w; weight percentage that remained in solution [2, 16]: 94.2 % w/w; weight percentage that remained in solution [2, 17]: 87.7 % w/w; weight percentage that remained in solution ([2]; PEG 400, 4 hours): 96.8 % w/w; weight percentage that remained in solution ([2]; PEG 400, 1 day): 95.9 % w/w; weight percentage that remained in solution ([2]; PEG 400, 2 days): 96.7 % w/w; weight percentage that remained in solution ([2]; PEG 400, 7 days): 96.6 % w/w; weight percentage that remained in solution ([2]; PEG 400, 14 days): 97.3 % w/w |
| > 10000 | > 10000 | > 10000 | > 10000 | 1200 | > 10000 | > 10000 | > 10000 | > 10000 | 99.1 | 99.3 | 99.2 | 99.2 | 99.4 | 99.3 | 99.3 | 99.4 | 99.3 | 99.9 | 99.5 | CCCCCCCCCOP(=O)([O-])OC(Cn1cncn1)(Cn1cncn1)c1ccc(F)cc1F.[Na+] [Example 14, sodium 2-(2,4-difluorophenyl)-1,3-di(1H-1,2,4-triazol-1-yl)propan-2-yl nonyl phosphate] | weight percentage that remained in solution ([2]; H2O (pH = 2), 4 hours): 99.0 % w/w; weight percentage that remained in solution ([2]; H2O (pH = 2), 1 day): 99.1 % w/w; weight percentage that remained in solution ([2]; H2O (pH = 2), 2 days): 99.2 % w/w; weight percentage that remained in solution ([2]; H2O (pH = 2), 7 days): 99.2 % w/w; weight percentage that remained in solution ([2]; H2O (pH = 2), 14 days): 99.6 % w/w; weight percentage that remained in solution [2, 14]: 99.3 % w/w; weight percentage that remained in solution [2, 15]: 99.2 % w/w; weight percentage that remained in solution [2, 16]: 99.3 % w/w; weight percentage that remained in solution [2, 17]: 100.0 % w/w; weight percentage that remained in solution ([2]; PEG 400, 4 hours): 99.3 % w/w; weight percentage that remained in solution ([2]; PEG 400, 1 day): 99.3 % w/w; weight percentage that remained in solution ([2]; PEG 400, 2 days): 99.4 % w/w; weight percentage that remained in solution ([2]; PEG 400, 7 days): 99.4 % w/w; weight percentage that remained in solution ([2]; PEG 400, 14 days): 100.0 % w/w |

| Structure (SMILES) | solubility at 24 h [1, 4] [µg/mL] | solubility at 24 h [1, 5] [µg/mL] | solubility at 24 h [1, 6] [µg/mL] | solubility at 24 h [1, 7] [µg/mL] | solubility at 24 h [1, 8] [µg/mL] | solubility at 24 h [1, 9] [µg/mL] | solubility at 24 h [1, 10] [µg/mL] | solubility at 24 h [1, 11] [µg/mL] | solubility at 24 h [1, 12] [µg/mL] | weight percentage that remained in solution ([2]; H2O (pH = 7), 4 hours) [% w/w] | weight percentage that remained in solution ([2]; H2O (pH = 7), 1 day) [% w/w] | weight percentage that remained in solution ([2]; H2O (pH = 7), 2 days) [% w/w] | weight percentage that remained in solution ([2]; H2O (pH = 7), 7 days) [% w/w] | weight percentage that remained in solution ([2]; H2O (pH = 7), 14 days) [% w/w] | weight percentage that remained in solution ([2]; H2O (pH = 10), 4 hours) [% w/w] | weight percentage that remained in solution ([2]; H2O (pH = 10), 1 day) [% w/w] | weight percentage that remained in solution ([2]; H2O (pH = 10), 2 days) [% w/w] | weight percentage that remained in solution ([2]; H2O (pH = 10), 7 days) [% w/w] | weight percentage that remained in solution ([2]; H2O (pH = 10), 14 days) [% w/w] | weight percentage that remained in solution [2, 13] [% w/w] | also measured |
| --- | --- | --- | --- | --- | --- | --- | --- | --- | --- | --- | --- | --- | --- | --- | --- | --- | --- | --- | --- | --- | --- |
| CCOP(=O)(O[C@H]1CC[C@@]2(C)C(=CC[C@H]3[C@@H]4CC[C@H]([C@H](C)CCCC(C)C)[C@@]4(C)CC[C@@H]32)C1)OC(Cn1cncn1)(Cn1cncn1)c1ccc(F)cc1F (stereo partly shown) [Example 5] | 900 (≈ 1.15 mM) | 500 (≈ 0.639 mM) | 1400 (≈ 1.79 mM) | 4500 (≈ 5.75 mM) | 9700 (≈ 12.4 mM) | 4100 (≈ 5.24 mM) | < 1 | < 1 | < 1 | – | – | – | – | – | – | – | – | – | – | – | solubility ([3]; Benzylalcohol, organic solvent or mixture): ≥ 227000 µg/mL; solubility ([3]; Benzylbenzoate, organic solvent or mixture): 90000 µg/mL (≈ 115 mM); solubility ([3]; Ethylbenzoate, organic solvent or mixture): 133000 µg/mL (≈ 170 mM); solubility ([3]; Miglyol 812, oil or lipid): 12000 µg/mL (≈ 15.3 mM); solubility ([3]; N-methylpyrrolidone, organic solvent or mixture): ≥ 227000 µg/mL; solubility ([3]; Sesame oil (LCT), oil or lipid): 10000 µg/mL (≈ 12.8 mM) |
